According to patent US20230024991A1, “PRODRUGS OF ACYL CARNITINES” (ATAI Life Sciences AG, priority 2021, published 2023):

What was measured:
[1] = Determination of plasma half life, human plasma; type: in vitro ADME; details: 37° C. (Table 1), read-out: Human Mean t1/2
Experimental: (§1) Human, rat, and dog plasma were dialyzed against PBS buffer, pH 7.4 using Thermo Slide-A-Lyzer™ G2 Dialysis Cassettes for 24 hours at 4° C. prior to the experiment.
(§2) The assay was carried out in 96-well microtiter plates. Prodrugs and the reference compound (propantheline) at a final concentration of 1 μM were incubated separately in singlet at 37° C. with mouse, rat, dog, monkey or human plasma for 0, 30, 60, 120, 240, and 1440 min. At the end of each incubation time point, 300 μL of the quenching solutions (50% acetonitrile, 50% methanol, 0.05% formic acid) containing the internal standards (bucetin and d3-carnitine) was added to each well. The incubation plates were sealed, vortexed, and centrifuged at 10° C. for 15 minutes at 4000 rpm. The supernatant was transferred to fresh plates for LC/MS/MS analysis of the test compounds.
(§3) All samples were analyzed by LC/MS/MS using an AB Sciex API 4000 instrument (AB Sciex LLC, Framingham, Mass.), coupled to a Shimadzu LC-20AD LC Pump system (Shimadzu North America, Columbia, Md.). […]
(§4) The extent of metabolism was calculated based on the disappearance of prodrugs, compared to their initial concentration. The initial rates of clearance of prodrugs were calculated using linear regression plot of semi-log % remaining of prodrugs versus time. […]

[2] = Determination of plasma half life, rat plasma; type: in vitro ADME; details: pH 7.4, 37° C. (Table 4), read-out: Mean t1/2
Experimental: as §1, §2, §3, §4

[3] = Determination of plasma half life, dog plasma; type: in vitro ADME; details: pH 7.4, 37° C. (Table 4)
Experimental: as §1, §2, §3, §4

[4] = cited from earlier work
[5] = normal baseline conditions; cited from earlier work

| SMILES | half-life at 1 μM [1] [min] | half-life at 1 μM [2] [min] | half-life at 1 μM [3] [min] | bioavailability of dietary L-carnitine ([4]; dietary, depends on the amount in the meal) | bioavailability ([4]; oral administration of large amounts of exogenous carnitine (1-6 g)) | tubular reabsorption in the kidney [5] |
| --- | --- | --- | --- | --- | --- | --- |
| CCOC(=O)C[C@H](C[N+](C)(C)C)OC(=O)CC [Compound 3, (R)-4-ethoxy-N,N,N-trimethyl-4-oxo-2-(propionyloxy)butan-1-aminium chloride] | 550 | 527 | 1360 | – | – | – |
| C[N+](C)(C)C[C@H](O)CC(=O)[O-] [L-carnitine] | – | – | – | 54-87% | 5-18% | about 99% |
| CCCCC(=O)O[C@H](CC(=O)OCC)C[N+](C)(C)C [Compound 4, (R)-4-ethoxy-N,N,N-trimethyl-4-oxo-2-(pentanoyloxy)butan-1-aminium chloride] | 55.6 | 260 | 702 | – | – | – |
